Usually MIC stands for the lowest concentration found to suppress growth.

We go through 3 molecules from US9968089B2, “Microbicidal composition” (Dow Global Technologies LLC, priority 2013, dated 2018).

Common to all, as to test: MIC and synergy index test in 96 well microtiter plates
Holding throughout (format): cell-based

Test [1] concerns Pseudomonas aeruginosa ATCC #15442. The note with it: 1/10 TSB. As to the method:
Surfactants and biocides were evaluated for synergy by determining the synergy index (S.I.) of the combination. Synergy index was calculated based on minimum inhibitory concentrations (MIC) of two antimicrobial compounds (A and B) alone and in combinations. The tests organisms were Gram negative bacteria (Pseudomonas aeruginosa ATCC #15442), Gram positive bacteria (Staphylococcus aureus ATCC #6538), yeast (Candida albicans ATCC#10203) and mold (Aspergillus niger ATCC#16404). […] The test was carried out in 96 well microtiter plates. • Surf. A R^1O(CH2CH(CH3)O)5(CH2CH2O)9H, where R^1 is 2-ethylhexyl • Surf. D R^2O(CH2CH(CH3)O)3(CH2CH2O)5H • Surf. E R^2O(CH2CH(CH3)O)3(CH2CH2O)7H • In Surf. D and Surf. E, R^2 is a mixture of C8-C14 linear alkyl groups (70% C8-C10 linear alkyl and 30% C12-C14 linear alkyl)
(§1) The pH of the Triptic soy broth was 7.3 and the Potato dextrose broth was 5.1.
(§2) SI is calculated as follows: Ca/CA+Cb/CB=Synergy Index(“SI”)
(§3) Wherein: • CA=concentration of compound A in ppm, acting alone, which produced an end point (MIC of Compound A). • Ca=concentration of compound A in ppm, in the mixture, which produced an end point. • CB=concentration of compound B in ppm, acting alone, which produced an end point (MIC of Compound B). • Cb=concentration of compound B in ppm, in the mixture, which produced an end point.
(§4) When the sum of Ca/CA and Cb/CB is greater than one, antagonism is indicated.

In test [2] the test system is Candida albicans ATCC#10203. The note with it: PDB. The protocol:
(§5) Surfactants and biocides were evaluated for synergy by determining the synergy index (S.I.) of the combination. Synergy index was calculated based on minimum inhibitory concentrations (MIC) of two antimicrobial compounds (A and B) alone and in combinations. The tests organisms were Gram negative bacteria (Pseudomonas aeruginosa ATCC #15442), Gram positive bacteria (Staphylococcus aureus ATCC #6538), yeast (Candida albicans ATCC#10203) and mold (Aspergillus niger ATCC#16404). Contact time for the bacteria was 24 and 48 hours, yeast was 48 and 72 hrs, and 3 and 7 days for mold. The test was carried out in 96 well microtiter plates. • Surf. A R^1O(CH2CH(CH3)O)5(CH2CH2O)9H, where R^1 is 2-ethylhexyl • Surf. D R^2O(CH2CH(CH3)O)3(CH2CH2O)5H • Surf. E R^2O(CH2CH(CH3)O)3(CH2CH2O)7H • In Surf. D and Surf. E, R^2 is a mixture of C8-C14 linear alkyl groups (70% C8-C10 linear alkyl and 30% C12-C14 linear alkyl)
as §1, §2, §3, §4

Test [3] relates to Aspergillus niger ATCC#16404. The note with it: PDB. As to the method:
as §5, §1, §2, §3, §4

The subject of test [4] is Staphylococcus aureus ATCC #6538. The note with it: ATCC6538, 24 h. The protocol:
as §5, §1, §2, §3, §4

SMILES strings stand for the structures. Like-named read-outs stand apart in the source and are kept apart here.

On to `Cl/C=C\C[N+]12CN3CN(CN(C3)C1)C2.[Cl-]` [CTAC, cis-1-(3-chloroallyl)-3,5,7-triaza-1-azoniaadamantane chloride], for which the minimal inhibitory concentration (MIC) in test [1] (ATCC15442, 72 h, A: Surf. A, B: CTAC, P. aeruginosa ATCC#15442, 3rd Day, inoculum 1.156E+06, read-out: CB (MIC of compound B acting alone)) amounted to 600 µg/mL; in test [2] (ATCC10203, 48 h, A: Surf. D, B: CTAC, C. albicans ATCC#10203, 48 hrs, inoculum 5.726E+05 CFU/ml, read-out: CB (MIC of compound B acting alone)), 1000 µg/mL; in test [2] (ATCC10203, 48 h, A: Surf. E, B: CTAC, C. albicans ATCC 10203, 48 hrs, inoculum 1.808E+05, read-out: CB (MIC of compound B acting alone)) it was 3000 µg/mL; in test [3] (ATCC16404, A: Surf. D, B: CTAC, A. niger ATCC#16404, 3rd day, inoculum 1.156E+06, read-out: CB (MIC of compound B acting alone)), 1000 µg/mL; in test [4] (A: Surf. D, B: CTAC, S. aureus ATCC# 6538, 24 hrs, 1/10 TSB, inoculum 1.808E+05, read-out: CB (MIC of compound B acting alone)), 300 µg/mL; in test [4] (A: Surf. E, B: CTAC, S. aureus ATCC# 6538, 24 hrs, 1/10 TSB, inoculum 1.8E+06, read-out: CB (MIC of compound B acting alone)), 200 µg/mL.
In the case of `CC1(C)COCN1` [DMO, 4,4-dimethyloxazolidine], the MIC in test [1] (ATCC15442, 24 h, A: Surf. A, B: DMO, P. aeruginosa ATCC#15442, 24 hrs, inoculum 8.134+07 CFU/ml, read-out: CB (MIC of compound B acting alone)) was 80 µg/mL; in test [2] (ATCC10203, 48 h, A: Surf. E, B: DMO, C. albicans ATCC#10203, 48 hrs, inoculum 1808E+06, read-out: CB (MIC of compound B acting alone)), 1000 µg/mL; in test [2] (ATCC 10203 / ATCC 10231, 48 h, A: Surf. D, B: DMO, C. albicans ATCC#10231, 48 hrs, inoculum 5.726E+05 CFU/ml, read-out: CB (MIC of compound B acting alone)) it was 1000 µg/mL; in test [2] (ATCC 10203 / ATCC 10231, A: Surf. A, B: DMO, C. albicans ATCC#10231, 3rd Day, inoculum 1.156E+06 CFU/ml, read-out: CB (MIC of compound B acting alone)), 1000 µg/mL; in test [3] (ATCC16404, A: Surf. A, B: DMO, A. niger ATCC#16404, 3rd Day, inoculum 1.156E+06 CFU/ml, read-out: CB (MIC of compound B acting alone)), 60 µg/mL; in test [3] (ATCC16404, A: Surf. D, B: DMO, A. niger ATCC# 16404, 3rd day, inoculum 1.156E+06, read-out: CB (MIC of compound B acting alone)), 400 µg/mL. In addition, the MIC in test [3] (ATCC16404, A: Surf. E, B: DMO, A. niger ATCC#16404, 3rd Day, inoculum 1.56E+06 CFU/ml, read-out: CB (MIC of compound B acting alone)) is 800 µg/mL; in test [4] (A: Surf. D, B: 1135, S. aureus ATCC#6538, 24 hrs, 1/10 TSB, inoculum 1.16E+08, read-out: CB (MIC of compound B acting alone)), 80 µg/mL; in test [4] (A: Surf. E, B: DMO, ATCC# 6538, 24 hrs, 1/10 TSB, inoculum 1.80E+06 CFU/ml, read-out: CB (MIC of compound B acting alone)), 80 µg/mL; in test [4] (read-out: CB (MIC of compound B acting alone)) it was 50 µg/mL.
Regarding `O=[N+]([O-])C(CO)(CO)CO` [Tris Nitro, tris(hydroxymethyl)nitromethane], the MIC in test [1] (ATCC15442, 24 h, A: Surf. D, B: TrisNitro, Ps. aeruginosa ATCC#15442, 24 hrs, inoculum 1.16E+08, read-out: CB (MIC of compound B acting alone)) was 800 µg/mL; in test [1] (ATCC15442, 24 h, A: Surf. E, B: TrisNitro, Ps. aeruginosa ATCC#15442, 24 hrs, inoculum 5.727E+07 CFU/ml, read-out: CB (MIC of compound B acting alone)), 1000 µg/mL; in test [4] (A: Surf. E, B: TrisNitro, S. aureus ATCC# 6538, 24 hrs, 1/10 TSB, inoculum 1.808E+06 CFU/ml, read-out: CB (MIC of compound B acting alone)), 500 µg/mL.
